Measurements: patent publication US20260174763A1, “PREPARATION METHOD AND USE OF A NOVEL TAXANE-BASED COMPOUND” (Jiangsu Jibeier Pharmaceutical Co., Ltd., priority 2023, published 2026)

Assays:
[1] = tested on: human pancreatic cancer cell line SW1990; assay: CTG proliferation inhibition, SW1990; assay type: cell-based; conditions: 72 h incubation, read-out: IC50 (nM) of the test compounds for various tumor cell lines
Experimental: (§1) Testing the inhibition effect of the compounds of Formula (I) and Formula II on the proliferation of various tumor cell lines by CTG method:
(§2) The CellTiter-Glo Luminescent Cell Viability Assay (CTG) method was used to test the inhibition effect of the compounds of Formula (I) and Formula II on the proliferation of various tumor cell lines, and IC50 value was calculated. The tumor cell lines included: human pancreatic cancer cell lines: SW1990, PANC-1, HPAF-II; human gastric cancer cell lines: NCI-N87, MGC-803; human esophageal cancer cell lines: KYSE-150, KYSE-410; human head-and-neck cancer cell lines: C666-1, Fadu; human breast cancer cell line: MDA-MB-231; human lung cancer cell line: A549; human adrenocortical carcinoma cell line: SW-13; human bladder cancer/urothelial carcinoma cell line: BIU-87, totally 13 tumor cell lines.
(§3) Experimental method: cells in logarithmic growth phase were obtained. The cell suspension was added to each well of a 96-well plate, placed in an incubator at 37° C. for overnight incubation. Complete mediums corresponding to each of the tumor cell lines were used to dilute the test compounds of […] and Formula II. The drugs were subjected to gradient dilution according to the following table. Culture medium containing the drug to be tested was added to the 96-well plate. Replicates were provided or each concentration in three wells; and a negative control well not containing the drug to be tested was provided. The 96-well plate was placed in incubator for incubation for 72 h and then added thereto a CTG reagent, with a blank control well provided. The substances in the wells were mixed evenly, and the cells were lysed and incubated at room temperature for 10 min. The […] signal value (Lum) was measured with a microplate reader.
(§4) Data processing and analysis: The software GraphPad Prism 8.0 was used to process the data graphically, calculate IC50, perform four-parameter non-linear regression analysis on the data, and map the corresponding dose-response curve. The equation for calculating cell viability is as below: […]

[2] = tested on: human pancreatic cancer cell line PANC-1; assay: CTG proliferation inhibition, PANC-1; assay type: cell-based; conditions: 72 h incubation, read-out: IC50 (nM) of the test compounds for various tumor cell lines
Experimental: as §1, §2, §3, §4

[3] = tested on: human pancreatic cancer cell line HPAF-II; assay: CTG proliferation inhibition, HPAF-II; assay type: cell-based; conditions: 72 h incubation, read-out: IC50 (nM) of the test compounds for various tumor cell lines
Experimental: as §1, §2, §3, §4

[4] = tested on: human gastric cancer cell line NCI-N87; assay: CTG proliferation inhibition, NCI-N87; assay type: cell-based; conditions: 72 h incubation, read-out: IC50 (nM) of the test compounds for various tumor cell lines
Experimental: as §1, §2, §3, §4

[5] = tested on: human gastric cancer cell line MGC-803; assay: CTG proliferation inhibition, MGC-803; assay type: cell-based; conditions: 72 h incubation, read-out: IC50 (nM) of the test compounds for various tumor cell lines
Experimental: as §1, §2, §3, §4

[6] = tested on: human esophageal cancer cell line KYSE-150; assay: CTG proliferation inhibition, KYSE-150; assay type: cell-based; conditions: 72 h incubation, read-out: IC50 (nM) of the test compounds for various tumor cell lines
Experimental: as §1, §2, §3, §4

[7] = tested on: human esophageal cancer cell line KYSE-410; assay: CTG proliferation inhibition, KYSE-410; assay type: cell-based; conditions: 72 h incubation, read-out: IC50 (nM) of the test compounds for various tumor cell lines
Experimental: as §1, §2, §3, §4

[8] = tested on: human head-and-neck cancer cell line C666-1; assay: CTG proliferation inhibition, C666-1; assay type: cell-based; conditions: 72 h incubation, read-out: IC50 (nM) of the test compounds for various tumor cell lines
Experimental: as §1, §2, §3, §4

[9] = tested on: human head-and-neck cancer cell line Fadu; assay: CTG proliferation inhibition, Fadu; assay type: cell-based; conditions: 72 h incubation, read-out: IC50 (nM) of the test compounds for various tumor cell lines
Experimental: as §1, §2, §3, §4

[10] = tested on: human breast cancer cell line MDA-MB-231; assay: CTG proliferation inhibition, MDA-MB-231; assay type: cell-based; conditions: 72 h incubation, read-out: IC50 (nM) of the test compounds for various tumor cell lines
Experimental: as §1, §2, §3, §4

[11] = tested on: human lung cancer cell line A549; assay: CTG proliferation inhibition, A549; assay type: cell-based; conditions: 72 h incubation, read-out: IC50 (nM) of the test compounds for various tumor cell lines
Experimental: as §1, §2, §3, §4

[12] = tested on: human adrenocortical carcinoma cell line SW-13; assay: CTG proliferation inhibition, SW-13; assay type: cell-based; conditions: 72 h incubation, read-out: IC50 (nM) of the test compounds for various tumor cell lines
Experimental: as §1, §2, §3, §4

[13] = tested on: human bladder cancer/urothelial carcinoma cell line BIU-87; assay: CTG proliferation inhibition, BIU-87; assay type: cell-based; conditions: 72 h incubation, read-out: IC50 (nM) of the test compounds for various tumor cell lines
Experimental: as §1, §2, §3, §4

[14] = tested on: tumor cell; conditions: compared with paclitaxel; cited from earlier work
[15] = tested on: advanced breast cancer; conditions: clinical outcome; cited from earlier work
[16] = tested on: advanced non-small cell lung cancer; conditions: clinical outcome; cited from earlier work
[17] = tested on: advanced ovarian cancer; conditions: clinical outcome; cited from earlier work

IC50 [1]	IC50 [2]	IC50 [3]	IC50 [4]	IC50 [5]	IC50 [6]	IC50 [7]	IC50 [8]	IC50 [9]	IC50 [10]	IC50 [11]	IC50 [12]	IC50 [13]	Compound	ability to inhibit cell division relative to paclitaxel [14]	tumor cell proliferation inhibition rate relative to paclitaxel [14]	effective rate [15]	effective rate [16]	effective rate [17]
6.4 nM	0.549 nM	2.18 nM	18.8 nM	4.99 nM	0.726 nM	0.097 nM	12.1 nM	8.62 nM	12.6 nM	12.4 nM	9.12 nM	17.5 nM	CC(=O)OC12COC1CC(O)C1(C)C(=O)C(OC(=O)Nc3ccc(C(C)O)cc3)C3=C(C)C(OC(=O)C(O)C(NC(=O)OC(C)(C)C)c4ccccc4)CC(O)(C(OC(=O)c4ccccc4)C21)C3(C)C (centres unmarked) [Compound I-4]					
0.916 nM	0.814 nM	2.22 nM	8.3 nM	2.08 nM	0.376 nM	0.084 nM	10.5 nM	0.657 nM	6.61 nM	25.3 nM	2.69 nM	0.319 nM	CC(=O)OC12COC1CC(O)C1(C)C(=O)C(OC(=O)Nc3ccc(C(C)O)cc3)C3=C(C)C(OC(=O)C(O)C(NC(=O)OC(C)(C)C)c4ccccc4)CC(O)(C(OC(=O)c4ccccc4)C21)C3(C)C (centres unmarked) [Compound I-3]					
14.2 nM	0.007 nM	9.05 nM	14.7 nM	0.844 nM	1.7 nM	0.032 nM	10.5 nM	9.16 nM	6.57 nM	27.1 nM	10.1 nM	12.7 nM	CC(=O)OC12COC1CC(O)C1(C)C(=O)C(OC(=O)Nc3ccc(C(C)O)cc3)C3=C(C)C(OC(=O)C(O)C(NC(=O)OC(C)(C)C)c4ccccc4)CC(O)(C(OC(=O)c4ccccc4)C21)C3(C)C (centres unmarked) [Compound I-8]					
6.34 nM	2.27 nM	4.45 nM	28.2 nM	0.187 nM	1.99 nM	1.26 nM	16 nM	2.64 nM	5.46 nM	41.9 nM	1.57 nM	12.1 nM	CC(=O)OC12COC1CC(O)C1(C)C(=O)C(OC(=O)Nc3ccc(C(C)O)cc3)C3=C(C)C(OC(=O)C(O)C(NC(=O)OC(C)(C)C)c4ccccc4)CC(O)(C(OC(=O)c4ccccc4)C21)C3(C)C (centres unmarked) [Compound I-1]					
3.1 nM	2.89 nM	8.65 nM	7.46 nM	3.4 nM	1.75 nM	0.101 nM	7.34 nM	4.15 nM	0.042 nM	11.7 nM	6.12 nM	29.1 nM	CC(=O)OC12COC1CC(O)C1(C)C(=O)C(OC(=O)Nc3ccc(C(C)O)cc3)C3=C(C)C(OC(=O)C(O)C(NC(=O)OC(C)(C)C)c4ccccc4)CC(O)(C(OC(=O)c4ccccc4)C21)C3(C)C (centres unmarked) [Compound I-2]					

Continued, molecule first:

Compound	IC50 [1]	IC50 [2]	IC50 [3]	IC50 [4]	IC50 [5]	IC50 [6]	IC50 [7]	IC50 [8]	IC50 [9]	IC50 [10]	IC50 [11]	IC50 [12]	IC50 [13]	ability to inhibit cell division relative to paclitaxel [14]	tumor cell proliferation inhibition rate relative to paclitaxel [14]	effective rate [15]	effective rate [16]	effective rate [17]
CC(=O)OC12COC1CC(O)C1(C)C(=O)C(OC(=O)Nc3ccc(C(C)O)cc3)C3=C(C)C(OC(=O)C(O)C(NC(=O)OC(C)(C)C)c4ccccc4)CC(O)(C(OC(=O)c4ccccc4)C21)C3(C)C (centres unmarked) [Compound I-6]	12.2 nM	0.878 nM	11 nM	12.9 nM	3.49 nM	0.123 nM	0.02 nM	3.03 nM	12.8 nM	11.7 nM	18.9 nM	8.48 nM	30.1 nM					
CC(=O)OC12COC1CC(O)C1(C)C(=O)C(OC(=O)Nc3ccc(C(C)O)cc3)C3=C(C)C(OC(=O)C(O)C(NC(=O)OC(C)(C)C)c4ccccc4)CC(O)(C(OC(=O)c4ccccc4)C21)C3(C)C (centres unmarked) [Compound I-7]	6.73 nM	0.888 nM	3.11 nM	10.9 nM	4.93 nM	0.972 nM	0.1 nM	9.19 nM	6.47 nM	13 nM	60.2 nM	7.36 nM	10.2 nM					
CC(=O)OC12COC1CC(O)C1(C)C(=O)C(OC(=O)Nc3ccc(C(C)O)cc3)C3=C(C)C(OC(=O)C(O)C(NC(=O)OC(C)(C)C)c4ccccc4)CC(O)(C(OC(=O)c4ccccc4)C21)C3(C)C (centres unmarked) [Compound I-5]	12.7 nM	1.41 nM	10.7 nM	11.4 nM	0.635 nM	0.808 nM	0.016 nM	3.39 nM	4.76 nM	2.91 nM	5.64 nM	4.75 nM	17.7 nM					
CC(=O)OC12COC1CC(O)C1(C)C(=O)C(OC(=O)Nc3ccc(C(C)=O)cc3)C3=C(C)C(OC(=O)C(O)C(NC(=O)OC(C)(C)C)c4ccccc4)CC(O)(C(OC(=O)c4ccccc4)C21)C3(C)C (centres unmarked) [II, reference compound]	15.5 nM	3.35 nM	12.6 nM	20.8 nM	5.34 nM	1.9 nM	0.113 nM	12.8 nM	16.7 nM	20.9 nM	60.5 nM	12.5 nM	30.5 nM					
CC(=O)O[C@@]12CO[C@@H]1C[C@H](O)[C@@]1(C)C(=O)[C@H](O)C3=C(C)[C@@H](OC(=O)[C@H](O)[C@@H](NC(=O)OC(C)(C)C)c4ccccc4)C[C@@](O)([C@@H](OC(=O)c4ccccc4)[C@H]21)C3(C)C [docetaxel, Docetaxel]														twice that of paclitaxel	10 times	60%	31%	30%
